# Test system: GS-CHO cells
# Assay: Spike-in of single purified metabolites into Medium A, growth of GS-CHO cells monitored 5 or 6 days
# Type: cell-based, Chinese hamster
# Experimental: GS-CHO cells producing a recombinant antibody were inoculated at low viable cell densities (0.1E6 cells/mL) in various conditions in 5 ml volume, 6-well plate cultures. […] The pH of the Medium A, spiked-in with any one of the nine metabolites or any combination of the nine metabolites, was adjusted to 7 before inoculating the cells (on day 0).
# For indolelactate, the stock solution (500 mM) was prepared in DMSO. […] All the conditions were run in duplicates or triplicates. Growth of the cells in above described conditions was monitored for 5 or 6 days.
# [1] = metabolite alone at concentrations higher than 0.5 mM or 1 mM
compound,measurement,setting,value
O=C(O)C(O)Cc1ccc(O)cc1 (stereo not shown) [3-(4-hydroxyphenyl)lactate],effect on growth of cells,[1],Modest inhibition of growth
O=C(O)c1c[nH]c2ccccc12 [Indolecarboxylic acid],effect on growth of cells,metabolite alone at concentrations of 1 mM or lower,potent negative effect on growth of cells
CCC(O)C(=O)O (stereo not shown) [2-hydroxybutyric acid],effect on growth of cells,[1],Modest inhibition of growth
O=CO [Formate],effect on growth of cells,metabolite alone at concentrations 2 mM and beyond,negative effect on growth
O=C(O)C(O)Cc1c[nH]c2ccccc12 (stereo not shown) [Indolelactate],effect on growth of cells,"metabolite alone at concentrations of 3 mM or below, DMSO control included",little or no effect on growth of cells
N[C@@H](CCS)C(=O)O [Homocysteine],effect on growth of cells,[1],Modest inhibition of growth
Phenyllactate [Phenyllactate (PLA)],effect on growth of cells,metabolite alone at 1 mM concentration,mild effect on growth of cells

# — patent publication US12584113B2, “Method of cell culture” (Pfizer Inc., priority 2014, dated 2026)
